{"source": "patent US20210317134A1", "about": "“UBIQUITIN-SPECIFIC-PROCESSING PROTEASE 7 (USP7) MODULATORS AND USES THEREOF” (RAPT THERAPEUTICS, INC., priority 2019, published 2021)", "note": "pIC50: −log10 of the molar value.", "data": [{"biological_target": "USP7 (Homo sapiens, UniProt Q93009)", "sequence (Q93009 whole entry)": "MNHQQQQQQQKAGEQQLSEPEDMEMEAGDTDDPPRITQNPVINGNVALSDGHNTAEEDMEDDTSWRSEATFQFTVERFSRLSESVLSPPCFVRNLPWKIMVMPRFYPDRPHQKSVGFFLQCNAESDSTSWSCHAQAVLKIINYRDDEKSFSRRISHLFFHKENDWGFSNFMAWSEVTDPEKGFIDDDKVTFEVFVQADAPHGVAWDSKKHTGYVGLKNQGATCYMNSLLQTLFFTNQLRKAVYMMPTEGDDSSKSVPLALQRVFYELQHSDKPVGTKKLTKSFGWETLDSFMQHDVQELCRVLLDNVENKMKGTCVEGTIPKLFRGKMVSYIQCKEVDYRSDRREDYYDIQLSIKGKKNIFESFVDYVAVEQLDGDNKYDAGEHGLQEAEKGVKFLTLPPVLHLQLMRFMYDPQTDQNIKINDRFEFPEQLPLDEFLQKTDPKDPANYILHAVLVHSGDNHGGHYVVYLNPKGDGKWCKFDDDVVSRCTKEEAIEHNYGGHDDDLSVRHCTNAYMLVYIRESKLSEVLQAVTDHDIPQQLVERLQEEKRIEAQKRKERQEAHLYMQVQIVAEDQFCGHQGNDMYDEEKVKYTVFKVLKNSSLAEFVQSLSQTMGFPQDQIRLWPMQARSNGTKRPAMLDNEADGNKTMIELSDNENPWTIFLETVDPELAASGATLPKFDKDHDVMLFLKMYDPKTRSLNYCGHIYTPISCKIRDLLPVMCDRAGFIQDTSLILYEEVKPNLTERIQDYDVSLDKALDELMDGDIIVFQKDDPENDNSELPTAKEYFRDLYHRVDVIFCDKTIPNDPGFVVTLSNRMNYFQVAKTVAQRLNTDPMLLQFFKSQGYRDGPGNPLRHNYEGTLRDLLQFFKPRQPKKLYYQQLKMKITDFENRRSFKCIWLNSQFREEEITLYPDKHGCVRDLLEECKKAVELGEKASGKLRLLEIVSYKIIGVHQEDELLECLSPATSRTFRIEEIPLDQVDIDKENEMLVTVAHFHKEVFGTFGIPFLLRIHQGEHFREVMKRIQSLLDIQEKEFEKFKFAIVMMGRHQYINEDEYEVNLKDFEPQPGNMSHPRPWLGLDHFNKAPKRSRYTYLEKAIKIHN", "assay": "USP7 inhibitory potency (Table 1)", "type": "biochemical", "values": [{"smiles": "CCC(=O)NCc1cc2nccc(-c3cc(Cl)cc4c3O[C@@H](c3onc5c3CNCC5)C4)c2s1", "note": "[(R)-N-((7-(5-chloro-2-(4,5,6,7-tetrahydroisoxazolo[4,3-c]pyridin-3-yl)-2,3-dihydrobenzofuran-7-yl)thieno[3,2-b]pyridin-2-yl)methyl)propionamide]", "pIC50": "> 6.00"}, {"smiles": "CC(=O)N(C)Cc1cc2nccc(-c3cc(Cl)cc4c3O[C@@H](C(=O)N3CCNCC3)C4)c2s1", "note": "[(R)-N-((7-(5-chloro-2-(piperazine-1-carbonyl)-2,3-dihydrobenzofuran-7-yl)thieno[3,2-b]pyridin-2-yl)methyl)-N-methylacetamide]", "pIC50": "> 6.00"}, {"smiles": "CC(=O)NCc1cc2nccc(-c3cc(Cl)cc4c3O[C@@H](C(=O)N3CCNCC3)C4)c2s1", "note": "[(R)-N-((7-(5-chloro-2-(piperazine-1-carbonyl)-2,3-dihydrobenzofuran-7-yl)thieno[3,2-b]pyridin-2-yl)methyl)acetamide]", "pIC50": "> 6.00"}, {"smiles": "CS(=O)(=O)NCc1cc2nccc(-c3cc(Cl)cc4c3O[C@@H](C(=O)N3CCNCC3)C4)c2s1", "note": "[(R)-N-((7-(5-chloro-2-(piperazine-1-carbonyl)-2,3-dihydrobenzofuran-7-yl)thieno[3,2-b]pyridin-2-yl)methyl)methanesulfonamide]", "pIC50": "> 6.00"}, {"smiles": "O=C([C@H]1Cc2cc(Cl)cc(-c3ccnc4cc(CO)sc34)c2O1)N1CCC(N2CCCCC2)CC1", "note": "[(R)-[1,4′-bipiperidin]-1′-yl(5-chloro-7-(2-(hydroxymethyl)thieno[3,2-b]pyridin-7-yl)-2,3-dihydrobenzofuran-2-yl)methanone]", "pIC50": "> 6.00"}, {"smiles": "O=C([C@H]1Cc2cc(Cl)cc(-c3ccnc4ccsc34)c2O1)N1CCC(N2CCCCC2)CC1", "note": "[(R)-[1,4′-bipiperidin]-1′-yl(5-chloro-7-(thieno[3,2-b]pyridin-7-yl)-2,3-dihydrobenzofuran-2-yl)methanone]", "pIC50": "5.00 to 6.00"}, {"smiles": "CC[C@H](O)c1cc2ncnc(-c3cc(Cl)cc4c3O[C@@H](c3onc5c3CNCC5)C4)c2s1", "note": "[(S)-1-(4-((R)-5-chloro-2-(4,5,6,7-tetrahydroisoxazolo[4,3-c]pyridin-3-yl)-2,3-dihydrobenzofuran-7-yl)thieno[3,2-d]pyrimidin-6-yl)propan-1-ol]", "pIC50": "> 6.00"}, {"smiles": "CC[C@H](O)c1cc2nccc(-c3cc(Cl)cc4c3O[C@@H](c3onc5c3CNCC5)C4)c2s1", "note": "[(S)-1-(7-((R)-5-chloro-2-(4,5,6,7-tetrahydroisoxazolo[4,3-c]pyridin-3-yl)-2,3-dihydrobenzofuran-7-yl)thieno[3,2-b]pyridin-2-yl)propan-1-ol]", "pIC50": "> 6.00"}, {"smiles": "CC[C@H](O)c1cc2nccc(-c3cc(Cl)cc4c3O[C@@](C)(c3onc5c3CNCC5)C4)c2s1", "note": "[(S)-1-(7-((R)-5-chloro-2-methyl-2-(4,5,6,7-tetrahydroisoxazolo[4,3-c]pyridin-3-yl)-2,3-dihydrobenzofuran-7-yl)thieno[3,2-b]pyridin-2-yl)propan-1-ol]", "pIC50": "> 6.00"}, {"smiles": "CC[C@H](O)c1cc2nccc(-c3cc(Cl)cc4c3O[C@](C)(c3onc5c3CNCC5)C4)c2s1", "note": "[(S)-1-(7-((S)-5-chloro-2-methyl-2-(4,5,6,7-tetrahydroisoxazolo[4,3-c]pyridin-3-yl)-2,3-dihydrobenzofuran-7-yl)thieno[3,2-b]pyridin-2-yl)propan-1-ol]", "pIC50": "5.00 to 6.00"}, {"smiles": "C[C@H]1CCN(Cc2cc3nccc(-c4cc(Cl)cc5c4O[C@@H](C(=O)N4CCNCC4)C5)c3s2)C1=O", "note": "[(S)-1-((7-((R)-5-chloro-2-(piperazine-1-carbonyl)-2,3-dihydrobenzofuran-7-yl)thieno[3,2-b]pyridin-2-yl)methyl)-3-methylpyrrolidin-2-one]", "pIC50": "> 6.00"}, {"smiles": "Clc1cc2c(c(-c3ccnc4ccsc34)c1)O[C@H](c1onc3c1CNCC3)C2", "note": "[(S)-3-(5-chloro-7-(thieno[3,2-b]pyridin-7-yl)-2,3-dihydrobenzofuran-2-yl)-4,5,6,7-tetrahydroisoxazolo[4,3-c]pyridine]", "pIC50": "> 6.00"}, {"smiles": "O[C@@]1(c2cc3nccc(-c4cc(Cl)cc5c4O[C@@H](c4onc6c4CNCC6)C5)c3s2)CCOC1", "note": "[(S)-3-(7-((R)-5-chloro-2-(4,5,6,7-tetrahydroisoxazolo[4,3-c]pyridin-3-yl)-2,3-dihydrobenzofuran-7-yl)thieno[3,2-b]pyridin-2-yl)tetrahydrofuran-3-ol]", "pIC50": "> 6.00"}, {"smiles": "O=C([C@@H]1Cc2cc(Cl)cc(-c3ccnc4cc(CO)sc34)c2O1)N1CCNCC1", "note": "[(S)-(5-chloro-7-(2-(hydroxymethyl)thieno[3,2-b]pyridin-7-yl)-2,3-dihydrobenzofuran-2-yl)(piperazin-1-yl)methanone]", "pIC50": "5.00 to 6.00"}, {"smiles": "COC(=O)NCc1cc2nccc(-c3cc(Cl)cc4c3O[C@@H](c3onc5c3CNCC5)C4)c2s1", "note": "[Methyl (R)-((7-(5-chloro-2-(4,5,6,7-tetrahydroisoxazolo[4,3-c]pyridin-3-yl)-2,3-dihydrobenzofuran-7-yl)thieno[3,2-b]pyridin-2-yl)methyl)carbamate]", "pIC50": "> 6.00"}, {"smiles": "CC(=O)NC(C)c1cc2nccc(-c3cc(Cl)cc4c3O[C@@H](c3c5c(nn3C)CCNC5)C4)c2s1", "note": "(stereo partly drawn) [N-(1-(7-((R)-5-chloro-2-(2-methyl-4,5,6,7-tetrahydro-2H-pyrazolo[4,3-c]pyridin-3-yl)-2,3-dihydrobenzofuran-7-yl)thieno[3,2-b]pyridin-2-yl)ethyl)acetamide]", "pIC50": "> 6.00"}, {"smiles": "CC(=O)NC(C)c1cc2nccc(-c3cc(Cl)cc4c3O[C@@H](c3onc5c3CNCC5)C4)c2s1", "note": "(stereo partly drawn) [N-(1-(7-((R)-5-chloro-2-(4,5,6,7-tetrahydroisoxazolo[4,3-c]pyridin-3-yl)-2,3-dihydrobenzofuran-7-yl)thieno[3,2-b]pyridin-2-yl)ethyl)acetamide]", "pIC50": "> 6.00"}, {"smiles": "CC(=O)NC(C)c1cc2nccc(-c3cc(Cl)cc4c3O[C@@H](C(=O)N3CCNCC3)C4)c2s1", "note": "(stereo partly drawn) [N-(1-(7-((R)-5-chloro-2-(piperazine-1-carbonyl)-2,3-dihydrobenzofuran-7-yl)thieno[3,2-b]pyridin-2-yl)ethyl)acetamide]", "pIC50": "> 6.00"}, {"smiles": "CC(=O)NC(C)Cc1cc2nccc(-c3cc(Cl)cc4c3O[C@@H](C(=O)N3CCNCC3)C4)c2s1", "note": "(stereo partly drawn) [N-(1-(7-((R)-5-chloro-2-(piperazine-1-carbonyl)-2,3-dihydrobenzofuran-7-yl)thieno[3,2-b]pyridin-2-yl)propan-2-yl)acetamide]", "pIC50": "> 6.00"}, {"smiles": "CC(Cc1cc2nccc(-c3cc(Cl)cc4c3O[C@@H](C(=O)N3CCNCC3)C4)c2s1)NS(C)(=O)=O", "note": "(stereo partly drawn) [N-(1-(7-((R)-5-chloro-2-(piperazine-1-carbonyl)-2,3-dihydrobenzofuran-7-yl)thieno[3,2-b]pyridin-2-yl)propan-2-yl)methanesulfonamide]", "pIC50": "> 6.00"}, {"smiles": "CCC(NC(C)=O)c1cc2nccc(-c3cc(Cl)cc4c3O[C@@H](C(=O)N3CCNCC3)C4)c2s1", "note": "(stereo partly drawn) [N-(1-(7-((R)-5-chloro-2-(piperazine-1-carbonyl)-2,3-dihydrobenzofuran-7-yl)thieno[3,2-b]pyridin-2-yl)propyl)acetamide]", "pIC50": "> 6.00"}, {"smiles": "CC(=O)NCC1Cc2nccc(-c3cc(Cl)cc4c3O[C@@H](C(=O)N3CCNCC3)C4)c2C1", "note": "(stereo partly drawn) [N-((4-((R)-5-chloro-2-(piperazine-1-carbonyl)-2,3-dihydrobenzofuran-7-yl)-6,7-dihydro-5H-cyclopenta[b]pyridin-6-yl)methyl)acetamide]", "pIC50": "5.00 to 6.00"}, {"smiles": "CC(NCc1cc2nccc(-c3cc(Cl)cc4c3O[C@@H](c3onc5c3CNCC5)C4)c2s1)C(F)(F)F", "note": "(stereo partly drawn) [N-((7-((R)-5-chloro-2-(4,5,6,7-tetrahydroisoxazolo[4,3-c]pyridin-3-yl)-2,3-dihydrobenzofuran-7-yl)thieno[3,2-b]pyridin-2-yl)methyl)-1,1,1-trifluoropropan-2-amine]", "pIC50": "> 6.00"}, {"smiles": "O=C(NCc1ccccc1)c1cc2c(-c3cc(Cl)cc4c3OC(C(=O)N3CCNCC3)C4)ccnc2[nH]1", "note": "(stereo not shown) [N-benzyl-4-(5-chloro-2-(piperazine-1-carbonyl)-2,3-dihydrobenzofuran-7-yl)-1H-pyrrolo[2,3-b]pyridine-2-carboxamide]", "pIC50": "5.00 to 6.00"}, {"smiles": "CCC(O)c1cc2nccc(-c3cc(Cl)cc4c3O[C@@H](c3onc5c3CN(C)CC5)C4)c2s1", "note": "(stereo partly drawn) [drawing 1521, 1-(7-((R)-5-chloro-2-(5-methyl-4,5,6,7-tetrahydroisoxazolo[4,3-c]pyridin-3-yl)-2,3-dihydrobenzofuran-7-yl)thieno[3,2-b]pyridin-2-yl)propan-1-ol]", "pIC50": "> 6.00"}, {"smiles": "CCC(O)c1cc2nccc(-c3cc(Cl)cc4c3O[C@@H](c3onc5c3CNCC5)C4)c2o1", "note": "(stereo partly drawn) [drawing 1522, 1-(7-((R)-5-chloro-2-(4,5,6,7-tetrahydroisoxazolo[4,3-c]pyridin-3-yl)-2,3-dihydrobenzofuran-7-yl)furo[3,2-b]pyridin-2-yl)propan-1-ol]", "pIC50": "> 6.00"}, {"smiles": "CCC(O)c1cc2nccc(-c3cc(Cl)cc4c3O[C@@H](c3onc5c3CNCC5)C4)c2s1", "note": "(stereo partly drawn) [drawing 1523, 1-(7-((R)-5-chloro-2-(4,5,6,7-tetrahydroisoxazolo[4,3-c]pyridin-3-yl)-2,3-dihydrobenzofuran-7-yl)thieno[3,2-b]pyridin-2-yl)propan-1-ol]", "pIC50": "> 6.00"}, {"smiles": "CCC(O)c1cc2nccc(-c3cc(Cl)cc4c3O[C@@H](c3onc5c3CNCC5)C4)c2s1", "note": "(stereo partly drawn) [drawing 1570, 1-(7-((R)-5-chloro-2-(4,5,6,7-tetrahydroisoxazolo[4,3-c]pyridin-3-yl)-2,3-dihydrobenzofuran-7-yl)thieno[3,2-b]pyridin-2-yl)propan-1-ol]", "pIC50": "> 6.00"}, {"smiles": "CCC(O)c1cc2nccc(-c3cc(Cl)cc4c3O[C@@H](c3onc5c3CN(C)CC5)C4)c2s1", "note": "(stereo partly drawn) [drawing 1573, 1-(7-((R)-5-chloro-2-(5-methyl-4,5,6,7-tetrahydroisoxazolo[4,3-c]pyridin-3-yl)-2,3-dihydrobenzofuran-7-yl)thieno[3,2-b]pyridin-2-yl)propan-1-ol]", "pIC50": "> 6.00"}, {"smiles": "CCC(O)c1cc2ncnc(-c3cc(Cl)cc4c3O[C@@H](c3onc5c3CNCC5)C4)c2s1", "note": "(stereo partly drawn) [drawing 1579, 1-(4-((R)-5-chloro-2-(4,5,6,7-tetrahydroisoxazolo[4,3-c]pyridin-3-yl)-2,3-dihydrobenzofuran-7-yl)thieno[3,2-d]pyrimidin-6-yl)propan-1-ol]", "pIC50": "> 6.00"}, {"smiles": "CCC(O)c1cc2ncnc(-c3cc(Cl)cc4c3O[C@@H](c3onc5c3CNCC5)C4)c2s1", "note": "(stereo partly drawn) [drawing 1596, 1-(4-((R)-5-chloro-2-(4,5,6,7-tetrahydroisoxazolo[4,3-c]pyridin-3-yl)-2,3-dihydrobenzofuran-7-yl)thieno[3,2-d]pyrimidin-6-yl)propan-1-ol]", "pIC50": "> 6.00"}]}]}
